From patent US20130345218A1 (Vertex Pharmaceuticals Incorporated, priority 2010, published 2013)
Where two headings read alike, the source gives them in different places.

Columns and labels:
[1] = tested on: influenza A virus (A/PR/8/34); assay: microbe, parasite or virus in culture; type: cell-based; conditions: MDCK cells
[2] = tested on: influenza A virus (A/PR/8/34) minus-strand viral RNA; assay: microbe, parasite or virus in culture; type: cell-based
influenza infection = assay: Influenza therapeutic mouse model (survival, body weight, whole body plethysmography); type: in vivo; conditions: Balb/c mice, dosing @ 48 hours post infection with 30 mg/kg BID X 10 days
[3] = Influenza A virus, PR/8, MDCK, 72 h, mean IC50 (mean all), A/PR/8/34, 72 hours, read-out: Flu, MDCK IC50
[4] = Influenza A virus, PR/8, mean EC50 (mean all), viral RNA by bDNA, read-out: bDNA EC50

## O=C(O)[C@H]1C2CCC(CC2)[C@@H]1Nc1nc(-c2c[nH]c3ncc(F)cc23)ccc1F (racemic) [Compound I-35, (+/−) 3-(3-fluoro-6-(5-fluoro-1H-pyrrolo[2,3-b]pyridin-3-yl)pyridin-2-ylamino)bicyclo[2.2.2]octane-2-carboxylic acid]
[1]; [3]
  IC50: < 3.3 µM
[2]; [4]
  EC50: < 3.3 µM

## N#Cc1cc(F)c(N[C@H]2CCC[C@@H](NC(=O)N3CC[C@H](F)C3)C2)nc1-c1c[nH]c2ncc(F)cc12 [Compound I-43, (S)—N-((1R,3S)-3-((5-cyano-3-fluoro-6-(5-fluoro-1H-pyrrolo[2,3-b]pyridin-3-yl)pyridin-2-yl)amino)cyclohexyl)-3-fluoropyrrolidine-1-carboxamide]
[1]; [3]
  IC50: < 3.3 µM
[2]; [4]
  EC50: < 3.3 µM

## N#Cc1cnc(N[C@@H]2C3CCC(CC3)[C@H]2C(=O)O)nc1-c1c[nH]c2ncc(C(F)(F)F)cc12 (racemic) [Compound I-39, (+/−)-trans 3-((5-cyano-4-(5-(trifluoromethyl)-1H-pyrrolo[2,3-b]pyridin-3-yl)pyrimidin-2-yl)amino)bicyclo[2.2.2]octane-2-carboxylic acid]
[1]; [3]
  IC50: < 3.3 µM
[2]; [4]
  EC50: < 3.3 µM

## O=C(N[C@H]1CCC[C@@H](Nc2nc(-c3c[nH]c4ncc(F)cc34)c(C(F)(F)F)cc2F)C1)N1CCOCC1 [Compound I-21]
[1]; [3]
  IC50: < 3.3 µM
[2]; [4]
  EC50: < 3.3 µM

## N#Cc1cc(F)c(N[C@H]2CCC[C@@H](NC(=O)N3CCOCC3)C2)nc1-c1c[nH]c2ncc(F)cc12 [Compound I-12, N-((1R,3S)-3-((5-cyano-3-fluoro-6-(5-fluoro-1H-pyrrolo[2,3-b]pyridin-3-yl)pyridin-2-yl)amino)cyclohexyl)morpholine-4-carboxamide]
[1]; [3]
  IC50: < 3.3 µM
[2]; [4]
  EC50: < 3.3 µM

## Cn1cnc(C(=O)N[C@@H]2CCC[C@H](Nc3nc(-c4c[nH]c5ncc(F)cc45)c(F)cc3F)C2)c1 [Compound I-18, N-((1R,3S)-3-((3,5-difluoro-6-(5-fluoro-1H-pyrrolo[2,3-b]pyridin-3-yl)pyridin-2-yl)-amino)cyclohexyl)-1-methyl-1H-imidazole-4-carboxamide]
[1]; [3]
  IC50: < 3.3 µM
[2]; [4]
  EC50: < 3.3 µM

## O=C(O)[C@H]1C2CCC(CC2)[C@@H]1Nc1ncc(F)c(-c2c[nH]c3ncc(F)cc23)n1 (racemic) [Compound I-29, (+/−) trans-3-((5-fluoro-4-(5-fluoro-1H-pyrrolo[2,3-b]pyridin-3-yl)pyrimidin-2-yl)amino)bicyclo[2.2.2]octane-2-carboxylic acid]
[1]; [3]
  IC50: < 3.3 µM
[2]; [4]
  EC50: < 3.3 µM

## N#CC1(C(=O)N[C@@H]2CCC[C@H](Nc3nc(-c4c[nH]c5ncc(F)cc45)c(F)cc3F)C2)CC1 [Compound I-23]
[1]; [3]
  IC50: < 3.3 µM
[2]; [4]
  EC50: < 3.3 µM

## N#Cc1cnc(N[C@H]2CCCC[C@@H]2C(=O)O)nc1-c1c[nH]c2ncc(Cl)cc12 [Compound I-1, (1S,2S)-2-((4-(5-chloro-1H-pyrrolo[2,3-b]pyridin-3-yl)-5-cyanopyrimidine-2-yl)amino)-cyclohexanecarboxylic acid]
[1]; [3]
  IC50: < 3.3 µM
[2]; [4]
  EC50: < 3.3 µM

## O=C(O)[C@@H]1C2CCC(CC2)[C@H]1Nc1nc(-c2c[nH]c3ncc(F)cc23)c(F)cc1F [Compound I-26]
[1]; [3]
  IC50: < 3.3 µM
[2]; [4]
  EC50: < 3.3 µM

## O=C(N[C@@H]1CCC[C@H](Nc2nc(-c3c[nH]c4ncc(F)cc34)c(F)cc2F)C1)c1csc(Cl)c1 [Compound I-48, 5-chloro-N-((1R,3S)-3-((3,5-difluoro-6-(5-fluoro-1H-pyrrolo[2,3-b]pyridin-3-yl)pyridin-2-yl)amino)cyclohexyl)thiophene-3-carboxamide]
[1]; [3]
  IC50: < 3.3 µM
[2]; [4]
  EC50: < 3.3 µM

## O=C(O)[C@H]1C2CCC(CC2)[C@@H]1Nc1nc(Cl)nc(-c2c[nH]c3ncc(F)cc23)n1 (racemic) [Compound I-44, (+/−)-trans-3-(4-chloro-6-(5-fluoro-1H-pyrrolo[2,3-b]pyridin-3-yl)-1,3,5-triazin-2-ylamino)bicyclo[2.2.2]octane-2-carboxylic acid]
[1]; [3]
  IC50: < 3.3 µM
[2]; [4]
  EC50: < 3.3 µM

## O=C(O)[C@H]1C2CCC(CC2)[C@@H]1Nc1cc(C(F)(F)F)cc(-c2c[nH]c3ncc(F)cc23)n1 (racemic) [Compound I-37, (+/−)-trans-3-((6-(5-fluoro-1H-pyrrolo[2,3-b]pyridin-3-yl)-4-(trifluoro-methyl)pyridin-2-yl)amino)bicyclo[2.2.2]octane-2-carboxylic acid]
[1]; [3]
  IC50: < 3.3 µM
[2]; [4]
  EC50: < 3.3 µM

## NC(=O)c1cc(F)c(N[C@H]2CCC[C@@H](NC(=O)N3CCOCC3)C2)nc1-c1c[nH]c2ncc(F)cc12 [Compound I-13, N-((1R,3S)-3-((5-carbamoyl-3-fluoro-6-(5-fluoro-1H-pyrrolo[2,3-b]pyridin-3-yl)pyridin-2-yl)amino)cyclohexyl)morpholine-4-carboxamide]
[1]; [3]
  IC50: < 3.3 µM
[2]; [4]
  EC50: < 3.3 µM

## N#Cc1cnc(N[C@@H]2CCC[C@H](NC(=O)C3CC3)C2)nc1-c1c[nH]c2ncc(C(F)(F)F)cc12 (stereo in doubt) [Compound I-10, N-((1S,3R)-3-((5-cyano-4-(5-(trifluoromethyl)-1H-pyrrolo[2,3-b]pyridin-3-yl)pyrimidin-2-yl)amino)cyclohexyl)cyclopropanecarboxamide]
[1]; [3]
  IC50: < 3.3 µM
[2]; [4]
  EC50: < 3.3 µM

## O=C(O)[C@@H]1C2CCC(CC2)[C@H]1Nc1cc(C(F)(F)F)cc(-c2c[nH]c3ncc(F)cc23)n1 [Compound I-41]
[1]; [3]
  IC50: < 3.3 µM
[2]; [4]
  EC50: < 3.3 µM

## O=C(N[C@@H]1CCC[C@H](Nc2nc(-c3c[nH]c4ncc(F)cc34)c(F)cc2F)C1)N1CCC(F)(F)C1 [Compound I-25, N-((1R,3S)-3-((3,5-difluoro-6-(5-fluoro-1H-pyrrolo[2,3-b]pyridin-3-yl)pyridin-2-yl)-amino)cyclohexyl)-3,3-difluoropyrrolidine-1-carboxamide]
[1]; [3]
  IC50: < 3.3 µM
[2]; [4]
  EC50: < 3.3 µM

## N#Cc1cnc(N[C@H]2CCC[C@@H](C(=O)O)C2)nc1-c1c[nH]c2ncc(C(F)(F)F)cc12 [Compound I-4, (1R,3S)-3-((5-cyano-4-(5-(trifluoromethyl)-1H-pyrrolo[2,3-b]pyridin-3-yl)pyrimidin-2-yl)amino)cyclohexanecarboxylic acid]
[1]; [3]
  IC50: < 3.3 µM
[2]; [4]
  EC50: < 3.3 µM

## 3-(2-(5-fluoro-1H-pyrrolo[2,3-b]pyridin-3-yl)pyridin-4-ylamino)bicyclo[2.2.2]octane-2-carboxylic acid [Compound I-49]
[1]; mean IC50 (mean all), A/PR/8/34, 72 hours, read-out: Flu, MDCK IC50
  IC50: < 3.3 µM
[2]; mean EC50 (mean all), viral RNA by bDNA, read-out: bDNA EC50
  EC50: < 3.3 µM

## N#Cc1cc(F)c(N[C@H]2CCC[C@@H](NC(=O)N3CCOCC3)C2)nc1-c1c[nH]c2ncc(Cl)cc12 [Compound I-11, N-((1R,3S)-3-((6-(5-chloro-1H-pyrrolo[2,3-b]pyridin-3-yl)-5-cyano-3-fluoro-pyridin-2-yl)amino)cyclohexyl)morpholine-4-carboxamide]
[1]; [3]
  IC50: < 3.3 µM
[2]; [4]
  EC50: < 3.3 µM

## O=C(N[C@@H]1CCC[C@H](Nc2nc(-c3c[nH]c4ncc(F)cc34)c(F)cc2F)C1)N1CC[C@H](F)C1 [Compound I-24, (S)—N-((1R,3S)-3-((3,5-difluoro-6-(5-fluoro-1H-pyrrolo[2,3-b]pyridin-3-yl)pyridin-2-yl)-amino)cyclohexyl)-3-fluoropyrrolidine-1-carboxamide]
[1]; [3]
  IC50: < 3.3 µM
[2]; [4]
  EC50: < 3.3 µM

## N#Cc1cc(F)c(N[C@H]2C3CCC(CC3)[C@@H]2C(=O)O)nc1-c1c[nH]c2ncc(F)cc12 (racemic) [Compound I-30]
[1]; [3]
  IC50: < 3.3 µM
[2]; [4]
  EC50: < 3.3 µM

## O=C(O)[C@H]1C2CCC(CC2)[C@@H]1Nc1nc(-c2c[nH]c3ncc(F)cc23)c(F)cc1F [Compound I-28, (2S,3S)-3-((3,5-difluoro-6-(5-fluoro-1H-pyrrolo[2,3-b]pyridin-3-yl)pyridin-2-yl)amino)bicyclo[2.2.2]octane-2-carboxylic acid]
[1]; [3]
  IC50: < 3.3 µM
[1]; Influenza A virus, PR/8, MDCK, CPE assay, A/PR/8/34, read-out: IC50
  IC50: 0.005 µM
Influenza infection; post challenge day 8
  Percent Weight Loss (Day 8): 24.8%
Influenza infection; scored for 21 days
  Percent Survival: 100%
Influenza infection; whole body plethysmography
  WBP (Penh; Day 6): 1.84
[2]; Influenza A virus, PR/8, bDNA assay, read-out: EC50
  EC50: 0.005 µM
[2]; [4]
  EC50: < 3.3 µM
